# Test results reported in patent publication US20240383908A1, “SYNTHESIS AND APPLICATION OF PHOSPHATASE DEGRADER” (HINOVA PHARMACEUTICALS INC., priority 2021, published 2024).
# Biological target: T1, SHP2 protein (Homo sapiens, UniProt Q06124)
# T1 sequence (Q06124 1-593): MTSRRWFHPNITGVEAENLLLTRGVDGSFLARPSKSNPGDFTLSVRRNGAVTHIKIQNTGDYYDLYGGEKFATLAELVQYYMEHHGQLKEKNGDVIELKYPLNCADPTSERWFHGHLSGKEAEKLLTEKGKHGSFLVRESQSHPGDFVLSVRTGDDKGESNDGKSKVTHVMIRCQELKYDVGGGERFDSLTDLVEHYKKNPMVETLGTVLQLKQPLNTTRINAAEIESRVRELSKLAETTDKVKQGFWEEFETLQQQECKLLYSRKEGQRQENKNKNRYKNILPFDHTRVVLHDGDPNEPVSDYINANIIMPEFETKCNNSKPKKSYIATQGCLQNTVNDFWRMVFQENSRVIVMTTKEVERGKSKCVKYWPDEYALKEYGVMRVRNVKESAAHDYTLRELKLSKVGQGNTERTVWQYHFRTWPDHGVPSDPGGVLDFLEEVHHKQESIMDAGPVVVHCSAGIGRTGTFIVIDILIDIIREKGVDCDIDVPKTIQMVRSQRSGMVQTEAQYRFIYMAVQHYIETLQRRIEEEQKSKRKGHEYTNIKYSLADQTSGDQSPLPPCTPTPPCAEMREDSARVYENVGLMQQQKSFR
# Experiment: Degradation activity on SHP2 protein in MIA Paca-2 cells (Western blot, DC50)
# Assay type: cell-based
# Parameters: endogenous in cells; host or cells: MIA Paca-2 cells
# Conditions: read-out: Degradation activity for differenct cell lines MIA Paca-2 (DC50)
# Method in brief: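 DC50 is the concentration degrading 50% of SHP2 relative to DMSO control. It was derived by fitting Western blot band densitometry (anti-SHP2, GAPDH reference) from cells exposed 24 h to 0.1–100 nM compound in 0.1% DMSO.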
row,DC50 [nM],Structure (SMILES)
1,< 100,CC1(N)CCN(c2cnc(Sc3cccc(NC(=O)c4ccc(N5CCC(N6CCN(c7ccc(C(=O)NCc8ccc9c(c8)CN(C8CCC(=O)NC8=O)C9=O)cc7F)CC6)CC5)c(F)c4)c3)cn2)CC1 (stereo not drawn) [Compound 499]
2,> 1000,CC(=O)NC1(C)CCN(c2cnc(Sc3cccc(NC(=O)c4ccc(N5CCC(N6CC=C(c7ccc(C(=O)NCc8ccc9c(c8)CN(C8CCC(=O)NC8=O)C9=O)nc7)CC6)CC5)c(F)c4)c3)cn2)CC1 (stereo not drawn) [Compound 425]
3,> 1000,CC1(N)CCN(c2cnc(Sc3cccc(NC(=O)C(C)(C)c4ccc(N5CCN(c6ccc(C(=O)NCc7ccc8c(c7)CN(C7CCC(=O)NC7=O)C8=O)nc6)CC5)cc4)c3)cn2)CC1 (stereo not drawn) [Compound 331]
4,< 100,C[C@@H]1OCC2(CCN(c3cnc(Sc4cccc(NC(=O)C5CCC(N6CC=C(c7ccc(C(=O)NCc8ccc9c(c8)CN(C8CCC(=O)NC8=O)C9=O)nc7)CC6)CC5)c4)cn3)CC2)[C@@H]1N (stereo partly drawn) [Compound 474]
5,< 100,CC1(N)CCN(c2cnc(Sc3cccc(NC(=O)c4ccc(N5CCC(N6CCN(c7nnc(C(=O)NCc8ccc9c(c8)CN(C8CCC(=O)NC8=O)C9=O)cc7Cl)CC6)CC5)cc4F)c3)cn2)CC1 (stereo not drawn) [Compound 494]
6,> 1000,CC1(N)CCN(c2cnc(Sc3cccc(NC(=O)c4cnc(N5CCC(N6CC=C(c7ccc(C(=O)NCc8ccc9c(c8)CN(C8CCC(=O)NC8=O)C9=O)nc7)CC6)CC5)o4)c3)cn2)CC1 (stereo not drawn) [Compound 340]
7,< 100,CC1(N)CCN(c2cnc(Sc3cccc(NC(=O)c4ccc(N5CCC(N6CC=C(c7cnc(C(=O)NCc8ccc9c(c8)CN(C8CCC(=O)NC8=O)C9=O)c(Cl)c7)CC6)CC5)c(F)c4)c3)cn2)CC1 (stereo not drawn) [Compound 413]
8,< 100,COc1nc(C2=CCN(C3CCN(c4ccc(C(=O)Nc5cccc(Sc6cnc(N7CCC(C)(N)CC7)cn6)c5)cc4)CC3)CC2)ccc1C(=O)NCc1ccc2c(c1)CN(C1CCC(=O)NC1=O)C2=O (stereo not drawn) [Compound 338]
9,> 1000,C[C@H](N)C(=O)N[C@@H](Cc1ccccc1)C(=O)NC1(C)CCN(c2cnc(Sc3cccc(NC(=O)c4ccc(N5CCC(N6CC=C(c7ccc(C(=O)NCc8ccc9c(c8)CN(C8CCC(=O)NC8=O)C9=O)nc7)CC6)CC5)cc4)c3)cn2)CC1 (stereo partly drawn) [Compound 427]

# More lines, now with the values behind:
row,Structure (SMILES),DC50 [nM]
1,C[C@@H]1OCC2(CCN(c3cnc(Sc4cccc(NC(=O)C5CC56CCN(c5ccc(CN7CCN(c8ccc9c(c8)CN(C8CCC(=O)NC8=O)C9=O)CC7)cc5F)CC6)c4)cn3)CC2)[C@@H]1N (stereo partly drawn) [Compound 273],> 1000
2,CC1(N)CCN(c2cnc(Sc3cccc(NC(=O)C4CC(N5CCN(c6ccc7c(c6)CN(C6CCC(=O)NC6=O)C7=O)CC5)C4)c3)cn2)CC1 (stereo not drawn) [Compound 269],> 1000
3,CC1(N)CCN(c2cnc(Sc3cccc(NCc4ccc(N5CCC(N6CCN(c7ccc8c(c7)C(=O)N(C7CCC(=O)NC7=O)C8)CC6)CC5)c(F)c4)c3)cn2)CC1 (stereo not drawn) [Compound 291],> 1000
4,CC1(N)CCN(c2cnc(Sc3cccc(NC(=O)c4ccc(N5CCC(N6CC=C(c7ccc(C(=O)NCc8ccc9c(c8)CN(C8CCC(=O)NC8=O)C9=O)nc7)C(C)(C)C6)CC5)cc4)c3)cn2)CC1 (stereo not drawn) [Compound 303],< 100
5,C[C@@H]1OCC2(CCN(c3cnc(Sc4cccc(NC(=O)c5cccc(CN6CCN(c7ccc8c(c7)CN(C7CCC(=O)NC7=O)C8=O)CC6)c5)c4)cn3)CC2)[C@@H]1N (stereo partly drawn) [Compound 297],> 1000
6,"CC1(N)CCN(c2cnc(Sc3cccc(NC(=O)C4CC45CCC(N4CC=C(c6ccc(C(=O)Nc7ccc8c(c7)CN(C7CCC(=O)NC7=O)C8=O)nn6)CC4)CC5)c3)cn2)CC1 (single isomer, unassigned) [Compound 321]",< 100
7,CC1(N)CCN(c2cnc(Sc3cccc(NC(=O)c4ccc(N5CCC(C(=O)NCc6ccc7c(c6)CN(C6CCC(=O)NC6=O)C7=O)CC5)c(F)c4)c3)cn2)CC1 (stereo not drawn) [Compound 306],> 1000

# Biological target: T1, SHP2 protein
# Experiment: Degradation activity on SHP2 protein in MV-411 cells (Western blot, DC50)
# Assay type: cell-based
# Parameters: endogenous in cells
# Conditions: MV411 cells, 24 hours, read-out: Degradation activity for differenct cell lines MV411 (DC50)
# Description: • MV-411 cell line (COBIER, CBP-60522) • FBS (GEMINI, Cat. No. 900-108) • 0.01M PBS (Biosharp, Cat. No. 162262) • IMDM (Hyclone, Cat. No. SH30228.01) • Penicillin-Streptomycin (Gibco, Cat. No. 15140122) • DMSO (Sigma, Cat. No. D5879) • Centrifuge Tube, 15 ml (Excell Bio, Cat. No. CS015-0001) • Cell Culture Dish, (WHB, Cat. No. CS016-0128) • 12-well cell culture cluster (Corning, Cat. No. 3513) • RIPA lysate buffer (Thermo, Cat. No. 89900) • Protein Loding Buffer (Beyotime, Cat. No. P0015L) • BCA Protein Assay Kit (EpiZyme, Cat. No. ZJ102) • SDS-PAGE Fast Preparation Kit (EpiZyme, Cat. No. PG112) • Anti-GAPDH (14C10) Rabbit mAb (CST, Cat. No. 2118L) • Anti-SHP2 rabbit mAb (CST, Cat. No. 37525) • Peroxidase Affinipure (HRP) Goat Anti-Rabbit IgG (Zen Bioscience, Cat. No. 511203) • TBST (Biosharp, Cat. No. BL601A) • ECL chemiluminescence kit (4A Biotech, Cat. No. 4AW011-200)
# • (1) Cell culture medium: IMIDM medium+10% FBS+1% Pen Strep; • (2) PBS buffer: PBS powder was dissolved in 2 L of ultrapure water and sterilized; • (3) Cell lysate: RIPA lysate buffer is added with protease inhibitors at a ratio of 1:1000 before use.
# (1) MV-411 cells were cultured in the cell culture medium, and then well-growing cells were selected and inoculated in a 12-well plate, with 1 mL/well and 1×10^6 cells/well. The plate was incubated overnight in a 5% CO2 cell incubator at 37° C.
# (2) 10 mM storage solution of each drug was prepared using dimethylsulfoxide (DMSO). The stock solution was diluted gradually with DMSO before use, and then 1 μL of the compound solution was added to the cell culture well (to ensure that the DMSO concentration in the culture system was […]), so that the final drug concentration is 100 nM, 10 nM, 3 nM, 1 nM, 0.3 nM, and 0.1 nM. Two wells were set for each concentration. The plate was gently shaken and mixed. Additionally, negative control wells (containing an equal amount of DMSO) and positive control wells were included.
# (3) After 24 hours of cultivation, the cells were lysed using RIPA cell lysate, and the proteins were extracted. The protein concentration was measured using a BCA assay kit. 5× concentrated protein buffer was loaded, heated at 100° C. for 5 min, and then the sample was stored at −20° C.
# (4) For each well, 30 μg of protein was loaded to polyacrylamide gel for electrophoresis.
# (5) The protein was transferred from polyacrylamide gel to PVDF membrane, and sealed at room temperature with 5% skimmed milk for 1 h, which was then incubated with the primary antibodies (Anti-SHP2 rabbit mAb and Anti-GAPDH rabbit mAb) at 4° C. overnight. The membrane was washed three times with TBST solution, 10 minutes for each time. After that, the membrane was incubated with the secondary antibodies (horseradish peroxidase labeled goat anti-rabbit IgG) at room temperature for 2 h, and then washed three times with TBST solution, 10 minutes for each time, followed by exposure.
# (6) The images were analyzed with Image J grayscale, and the degradation ratio of protein bands in the test group was calculated, based on the negative control group (DMSO) (100%).
# (7) Using the Dose-response-inhibition equation in the data processing software GraphPad Prism 8, the DC50 value was obtained (which represents the drug concentration corresponding to 50% degradation of the target protein).
# Finally, ECL detection solution was added for color development, and photos were taken with an automatic chemiluminescence instrument, so as to collect images and analyze them.
row,DC50 [nM],Structure (SMILES)
1,< 100,CN(Cc1ccc2c(c1)CN(C1CCC(=O)NC1=O)C2=O)C(=O)c1cnc(N2CCC3(CN(CCCCCCC(=O)Nc4cccc(Sc5cnc(N6CCC(C)(N)CC6)cn5)c4)C3)C2)c(Cl)c1 (stereo not drawn) [Compound 182]
2,< 100,Cc1ncsc1-c1ccc([C@H](C)NC(=O)[C@@H]2C[C@@H](O)CN2C(=O)[C@@H](NC(=O)CCCCCCCCN2CCN(C(=O)/C=C/C(=O)Nc3cccc(Sc4cnc(N5CCC(C)(N)CC5)cn4)c3)CC2)C(C)(C)C)cc1 [Compound 54]
3,< 100,Cc1ncsc1-c1ccc([C@H](C)NC(=O)[C@@H]2C[C@@H](O)CN2C(=O)[C@@H](NC(=O)c2cnc(N3CCN(CCOCCOCC(=O)Nc4cccc(Sc5cnc(N6CCC(C)(N)CC6)cn5)c4)CC3)nc2)C(C)(C)C)cc1 [Compound 66]
4,100 to 1000,NC1(CO)CCN(c2cnc(Sc3cccc(NC(=O)CCCCCCCNc4ccc(-c5ccc(C(=O)NCc6ccc7c(c6)C(=O)N(C6CCC(=O)NC6=O)C7)nn5)cc4)c3)cn2)CC1 (stereo not drawn) [Compound 201]
5,< 100,CCC1(N)CCN(c2cnc(Sc3cccc(NC(=O)CCCCCCN4CC5(CCN(c6ccc(C(=O)N(C)Cc7ccc8c(c7)CN(C7CCC(=O)NC7=O)C8=O)nn6)C5)C4)c3)cn2)CC1 (stereo not drawn) [Compound 162]
6,< 100,C[C@@H]1OCC2(CCN(c3cnc(Sc4cccc(NC(=O)CCCCN5CC6(CCN(c7ccc(C(=O)NCc8ccc9c(c8)CN(C8CCC(=O)NC8=O)C9=O)nn7)C6)C5)c4)cn3)CC2)[C@@H]1N (stereo partly drawn) [Compound 109]
7,> 1000,CN[C@H](C)C(=O)N[C@@H](C(=O)N1C[C@@H](NC(=O)c2cnc(N3CCC4(CN(CCCCC(=O)Nc5cccc(Sc6cnc(N7CCC(N)(CF)CC7)cn6)c5)C4)C3)nc2)C[C@@H]1C(=O)Nc1c(F)cccc1F)C(C)(C)C [Compound 136]
8,> 1000,CC1(N)CCN(c2cnc(Sc3cccc(NC(=O)CCN4CC5(CCN(c6ccc(COc7cccc8c7CN(C7CCC(=O)NC7=O)C8=O)nn6)C5)C4)c3)cn2)CC1 (stereo not drawn) [Compound 133]
9,< 100,Cc1cc(C(=O)NCc2ccc3c(c2)CN(C2CCC(=O)NC2=O)C3=O)n(C2CCN(CCCCCCCCC(=O)Nc3cccc(Sc4cnc(N5CCC(C)(N)CC5)cn4)c3)CC2)n1 (stereo not drawn) [Compound 80]
10,> 1000,CC1(N)CCN(c2cnc(Sc3cccc(NC(=O)CCC(=O)NCCOCCOCCOCC(=O)NCc4ccc5c(c4)CN(C4CCC(=O)NC4=O)C5=O)c3)cn2)CC1 (stereo not drawn) [Compound 21]
11,< 100,CN(Cc1ccc2c(c1)CN(C1CCC(=O)NC1=O)C2=O)C(=O)c1ccc(N2CCC3(CN(CCCCCCC(=O)Nc4cccc(Sc5cnc(N6CCC(N)(CO)CC6)cn5)c4)C3)C2)nn1 (stereo not drawn) [Compound 169]
